According to ChEMBL document CHEMBL3751735, “Discovery of 2-(4-sulfonamidophenyl)-indole 3-carboxamides as potent and selective inhibitors with broad hepatitis C virus genotype activity targeting HCV NS4B” (Bioorg Med Chem Lett, 2016):

Key:
Hepatitis C virus [1] = test: Antiviral activity against HCV genotype 2a JFH-1 infected in human HuH7.5 cells assessed as HCV RNA expression measured 72 hrs post dose by qRT-PCR analysis; type: functional, organism-based, Hepacivirus hominis; conditions: JFH-1, Huh-7, 72 h
Hepatitis C virus [2] = test: Antiviral activity against HCV genotype 1b Con1 bicistronic replicon infected in human Huh7 cells assessed as replicon RNA expression measured 3 days post dose by real time RT-PCR analysis; type: functional, organism-based, Hepacivirus hominis; conditions: isolate Con1, Huh-7, 72 h
[3] = Toxicity against human HuH7 cells harboring HCV genotype 1b bicistronic replicon assessed as inhibition of GAPDH mRNA expression measured 3 days post dose by real time RT-PCR analysis; type: cell-based, Huh-7
Hepatitis C virus [4] = test: Antiviral activity against HCV genotype 1a H77S bicistronic replicon infected in human Huh7 cells assessed as replicon RNA expression measured 3 days post dose by real time RT-PCR analysis; type: functional, organism-based, Hepacivirus hominis; conditions: Huh-7, 72 h
Hepatitis C virus [5] = test: Antiviral activity against HCV genotype 3a S52/SG-Feo(SH) infected in human HuH7.5 cells measured 3 days post dose by Luciferase assay; type: functional, organism-based, Hepacivirus hominis; conditions: Huh-7, 72 h
[6] = AUC (0 to 6 hrs) in Sprague-Dawley rat plasma at 10 mg/kg, po measured at 30 mins to 6 hrs post dose; type: ADME, organism-based; design: dose 10 mg/kg, time < 6 hr, route oral
[7] = Ratio of drug level in liver to plasma in Sprague-Dawley rat at 10 mg/kg, po measured 6 hrs post dose; type: ADME, organism-based; conditions: liver and plasma
Hepatitis C virus [8] = test: Antiviral activity against HCV genotype 1b harboring NS4B F98C mutant relative to wild type HCV genotype 1b; type: functional, Hepacivirus hominis
Hepatitis C virus [9] = test: Antiviral activity against HCV genotype 1b harboring NS4B V105M mutant relative to wild type HCV genotype 1b; type: functional, Hepacivirus hominis

SMILES	EC50 (Hepatitis C virus [1]) [nM]	EC50 (Hepatitis C virus [2]) [nM]	IC50 at 3 days [3] [nM]	EC50 (Hepatitis C virus [4]) [nM]	EC50 (Hepatitis C virus [5]) [nM]	AUC(0-t) at 6 h [6] [µM·h]	Kp at 6 h [7]	fold change (FC) (Hepatitis C virus [8])	fold change (FC) (Hepatitis C virus [9])
CC(C)(C)S(=O)(=O)Nc1ccc(-c2c(C(N)=O)c3cc(F)c(OC(F)F)cc3n2C2CCCC2)c(Cl)c1	30	2	4500	7	58	9.96	65		
CCCS(=O)(=O)Nc1ccc(-c2c(C(N)=O)c3cc(F)c(C)cc3n2C2CCCC2)cc1		870	> 10000						
Cc1cc(F)c2c(C(N)=O)c(-c3ccc(NS(=O)(=O)C(C)(C)C)cc3)n(C3CCCC3)c2c1		34	> 10000						
Cc1cc2c(cc1F)c(C(N)=O)c(-c1ccc(NS(=O)(=O)C(C)(C)C)cc1)n2C1CCOCC1		17	> 10000						
CCc1cc2c(cc1F)c(C(N)=O)c(-c1ccc(NS(=O)(=O)C(C)(C)C)cn1)n2C1CCCCC1		68	> 10000						
Cc1cc2c(cc1F)c(C(N)=O)c(-c1ccc(NS(=O)(=O)C(C)(C)C)cc1)n2-c1ccc(Cl)cc1		43	> 10000						
CC(C)(C)S(=O)(=O)Nc1ccc(-c2c(C(N)=O)c3cc(F)c(OC(F)F)cc3n2C2CCCCC2)cn1	380	6	> 10000	10	119	0.204	332		
CCc1cc2c(cc1F)c(C(N)=O)c(-c1ccc(NS(=O)(=O)C(C)(C)C)cc1)n2C1CCCC1	20	7	> 10000	130	115	4.12	27		
CC(C)(C)S(=O)(=O)Nc1ccc(-c2c(C(N)=O)c3cc(F)c(C4CC4)cc3n2C2CCCC2)cc1		13	> 10000						
CC(C)(C)S(=O)(=O)Nc1ccc(-c2c(C(N)=O)c3cc(F)c(OC(F)F)cc3n2-c2ccccc2)cc1F		12	> 1100						
Cc1cc2c(cc1F)c(C(N)=O)c(-c1ccc(NS(=O)(=O)C(C)(C)C)cc1)n2-c1cccnc1		180	> 10000						
Cc1cc2c(cc1F)c(C(N)=O)c(-c1ccc(NS(=O)(=O)C(C)(C)C)cc1)n2C1CCCCC1	135	2	> 10000	8	80	0.685	11		
CCc1cc2c(cc1F)c(C(N)=O)c(-c1ccc(NS(=O)(=O)C(C)(C)C)cc1)n2C1CCCCC1		4	> 10000						
CC(C)(C)S(=O)(=O)Nc1ccc(-c2c(C(N)=O)c3cc(F)c(OC(F)F)cc3n2-c2ccccc2)c(F)c1	37	2	> 10000	3	4	7.93	57		
CCOc1cc2c(cc1F)c(C(N)=O)c(-c1ccc(NS(=O)(=O)C(C)(C)C)cc1)n2C1CCCC1		150	> 10000						
CCc1cc2c(cc1F)c(C(N)=O)c(-c1ccc(NS(=O)(=O)C(C)C)cc1)n2C1CCCC1		68	> 10000						
Cc1cc2c(cc1F)c(C(N)=O)c(-c1ccc(NS(=O)(=O)C(C)(C)C)cc1)n2-c1ccccc1	90	14	> 10000	180	374	14.9	24		
CCc1cc2c(cc1F)c(C(N)=O)c(-c1cnc(NS(=O)(=O)C(C)(C)C)nc1)n2C1CCCCC1		2100	> 10000						
CC(C)(C)S(=O)(=O)Nc1ccc(-c2c(C(N)=O)c3cc(F)c(OC(F)F)cc3n2-c2ccccc2)cc1	62	2	> 1100	2	12	14.4	26		
Cc1cc(NS(=O)(=O)C(C)(C)C)ccc1-c1c(C(N)=O)c2cc(F)c(OC(F)F)cc2n1C1CCCC1		14	9100						

SMILES	EC50 (Hepatitis C virus [1]) [nM]	EC50 (Hepatitis C virus [2]) [nM]	IC50 at 3 days [3] [nM]	EC50 (Hepatitis C virus [4]) [nM]	EC50 (Hepatitis C virus [5]) [nM]	AUC(0-t) at 6 h [6] [µM·h]	Kp at 6 h [7]	fold change (FC) (Hepatitis C virus [8])	fold change (FC) (Hepatitis C virus [9])
CC(C)(C)S(=O)(=O)Nc1ccc(-c2c(C(N)=O)c3cc(F)c(OC(F)F)cc3n2C2CCCC2)cc1	6	5	> 10000	4	20	0.382	47		
CC(C)(C)S(=O)(=O)Nc1ccc(-c2c(C(N)=O)c3cc(F)c(OC(F)F)cc3n2C2CCCCC2)cc1Cl		305	> 1000						
COc1cc2c(cc1F)c(C(N)=O)c(-c1ccc(NS(=O)(=O)C(C)(C)C)cc1)n2C1CCCC1		59	> 10000						
CC(C)(C)S(=O)(=O)Nc1ccc(-c2c(C(N)=O)c3c(F)cc(C(F)F)cc3n2C2CCCC2)cc1		4	> 10000						
Cc1cc(NS(=O)(=O)C(C)(C)C)ccc1-c1c(C(N)=O)c2cc(F)c(OC(F)F)cc2n1-c1ccccc1		2	> 10000						
CC(C)(C)S(=O)(=O)Nc1ccc(-c2c(C(N)=O)c3cc(F)c(OC(F)F)cc3n2C2CCCCC2)c(Cl)c1	28	2	> 10000	< 1	0.2	2.1	115		
CC(C)(C)S(=O)(=O)Nc1ccc(-c2c(C(N)=O)c3cc(F)c(OC(F)F)cc3n2C2CCCCC2)cc1F		3	> 1000						
CC(C)c1cc2c(cc1F)c(C(N)=O)c(-c1ccc(NS(=O)(=O)C(C)(C)C)cc1)n2C1CCCC1		170	> 10000						
Cc1cc2c(cc1F)c(C(N)=O)c(-c1ccc(NS(=O)(=O)C(C)C)cc1)n2C1CCCC1		56	> 10000						
Cc1cc2c(cc1F)c(C(N)=O)c(-c1ccc(NS(=O)(=O)C(C)(C)C)cc1)n2C1CCC1	10	45	> 10000	90	348	1.45	15		
CC(C)(C)S(=O)(=O)Nc1ccc(-c2c(C(N)=O)c3cc(F)c(OC(F)F)cc3n2C2CCCCC2)c(F)c1	23	2	> 10000	2	0.4	3.09	70		
Cc1cc(NS(=O)(=O)C(C)(C)C)ccc1-c1c(C(N)=O)c2cc(F)c(OC(F)F)cc2n1C1CCCCC1	24	10	> 10000	1	0.5	4.96	62		
CC(C)(C)S(=O)(=O)Nc1ccc(-c2c(C(N)=O)c3cc(F)c(OC(F)F)cc3n2C2CCCC2)c(F)c1	6	2	> 10000	10		0.37			
CC(C)(C)S(=O)(=O)Nc1ccc(-c2c(C(N)=O)c3cc(F)c(OC(F)F)cc3n2C2CCCCC2)cc1	35	2	> 10000	1	3	0.831	25	>=22	>55
Cc1cc(-c2c(C(N)=O)c3cc(F)c(OC(F)F)cc3n2C2CCCCC2)ccc1NS(=O)(=O)C(C)(C)C		36	> 1000						
CCCc1cc2c(cc1F)c(C(N)=O)c(-c1ccc(NS(=O)(=O)C(C)(C)C)cc1)n2C1CCCC1		1800	10000						
CCc1cc2c(cc1F)c(C(N)=O)c(-c1ccc(NS(=O)(=O)C(C)(C)C)nc1)n2C1CCCCC1		19	> 10000						
Cc1cc2c(cc1F)c(C(N)=O)c(-c1ccc(NS(=O)(=O)C(C)(C)C)cc1)n2C1CCCC1	10	39	> 10000	20	317	0.457	15		
Cc1cc2c(cc1F)c(C(N)=O)c(-c1ccc(NS(=O)(=O)C(C)(C)C)cc1)n2-c1ccncc1		68	> 10000						
Cc1cc(-c2c(C(N)=O)c3cc(F)c(OC(F)F)cc3n2-c2ccccc2)ccc1NS(=O)(=O)C(C)(C)C		120	> 10000						
